Assay results taken from US20250134855A1, “CO[…] AND METHODS OF USING SAME” (LYKOS THERAPEUTICS, INC., priority 2022, published 2025).
Where two headings read alike, the source gives them in different places.

Assay: Study MPKF: plasma pharmacokinetics of MDMA and MDA, single 120 mg MDMA·HCl, fasted/fed
Type: in vivo, human
Conditions: for Tmax: median
From the text: The MPKF was a Phase 1, open-label, randomized sequence, multi-dose, 2-period crossover food effect study in 16 healthy individuals. The MPKF study evaluated plasma concentrations of both MDMA and the active metabolite 3,4-methylenedioxyamphetamine (MDA). Summary PK Parameters of the preliminary data was based on interim analysis are presented in Table 12 Table 12 Table 12, and Table 13 Table 13 Table 13 for MDMA and MDA, respectively.
Participants were randomized to receive 1 of 2 conditions before the other: • Fasted Treatment: at least 10 hours of fasting followed by administration of MDMA HCl with 240 mL water. • Fed Treatment: at least 10 hours of fasting followed by a high-fat (approximately 50% of total caloric content of the meal) and high-calorie (approximately 800 to 1000 calories) meal was consumed within 30 minutes prior to IMP administration.
Participants remained at the clinical research unit (CRU) for each Dosing Session from the time of check-in on the night before dosing until discharge 48 hours after dosing for collection of serial blood samples for PK analysis and safety monitoring. IMP was administered on Day 1 following the treatment sequence to which the participant was randomized. An additional outpatient visit occurred 72 hours after dosing to collect a final PK sample, commensurate with the expected PK profiles of MDMA and MDA. Safety assessments were also performed at this visit.
The washout period between Dosing Sessions was at least 14 days. If a participant experienced emesis within 4 hours of administration, they were to be withdrawn from the study and replaced with a new participant. An End of Study Visit was performed 2 to 10 days after the completion of the final Dosing Session 72-hour follow-up. An informal interim analysis was planned to be conducted after at least 5 participants completed at least 1 Dosing Session to examine PK variability.
The API was a white crystalline powder of pharmaceutical quality, made according to current Good Manufacturing Practices (cGMP) for human use.
Participants: Sixteen healthy individuals were recruited for the study.
Intervention: The study was conducted as a Phase 1, open-label, randomized sequence, multi-dose, 2-period crossover food effect study. Each participant received multiple doses of MDMA, and plasma concentrations of both MDMA and the active metabolite MDA were measured.
Sample Collection: Blood samples were collected at various time points up to 72 hours after dosing. The samples were analyzed using validated liquid chromatography-tandem mass spectrometry (LC-MS/MS) methods.
Data Analysis: The summary PK parameters were presented in Table 12 for MDMA and Table 13 for MDA. The data were analyzed using descriptive statistics, and the mean and standard deviation were calculated. The results were compared between the two periods and analyzed for food effects. Statistical analyses were performed using appropriate methods, such as analysis of variance (ANOVA) and paired t-tests. A p-value of less than 0.05 was considered statistically significant.

[1] = Fasted (N = 15), 120 mg MDMA·HCl, geometric mean
[2] = Fed (N = 14), 120 mg MDMA·HCl, geometric mean

SMILES: CC(N)Cc1ccc2c(c1)OCO2 (centres unmarked) [MDA, 3,4-methylenedioxyamphetamine]
- higher plasma PK values in intermediate relative to normal CYP2D6 metabolizers (8 intermediate, 8 normal metabolizers): approximately 13%
- Cmax, Geometric LSM (Fasted): 12.39 ng/mL
- CL/F [1]: 302.8 L/h
- Cmax [1]: 12 ng/mL
- Tlag [1]: 0.6 h
- Tmax (Fasted (N = 15), 120 mg MDMA·HCl): 6 h
- Cmax, Geometric LSM (Fed): 11.92 ng/mL
- CL/F [2]: 270.7 L/h
- Cmax [2]: 12 ng/mL
- Tlag [2]: 0.7 h
- Tmax (Fed (N = 14), 120 mg MDMA·HCl): 7 h
- Cmax (both sexes, human, plasma, po, single 120 mg dose of MDMA·HCl, fasting healthy males and females, read-out: Cmax): 13.3 ng/mL
- AUC0-72, Geometric Mean Ratio (fed vs fasted): 0.98
- AUC0-inf, Geometric Mean Ratio (fed vs fasted): 0.99
- AUC0-t, Geometric Mean Ratio (fed vs fasted): 0.90
- Cmax, Geometric Mean Ratio (fed vs fasted): 0.96
- effect of food on exposure (high-fat meal vs fasting, single 120 mg MDMA·HCl): not affected by food
- AUC0-inf of MDA relative to MDMA (human, plasma, oral, 120 mg): less than 10%
- peak plasma levels of MDA relative to MDMA (human, plasma, oral, 120 mg): less than 10%
- AUC(0-t) (human, plasma, oral, 120 mg, Fasted, read-out: AUC0-72, Geometric LSM): 312 ng·h/mL
- AUC(0-inf) (human, plasma, oral, 120 mg, Fasted, read-out: AUC0-inf, Geometric LSM): 331 ng·h/mL
- AUC(0-t) (human, plasma, oral, 120 mg, Fasted, read-out: AUC0-t, Geometric LSM): 282 ng·h/mL
- AUC(0-t) (human, plasma, oral, 120 mg, Fed, read-out: AUC0-72, Geometric LSM): 306 ng·h/mL
- AUC(0-inf) (human, plasma, oral, 120 mg, Fed, read-out: AUC0-inf, Geometric LSM): 328 ng·h/mL
- AUC(0-t) (human, plasma, oral, 120 mg, Fed, read-out: AUC0-t, Geometric LSM): 254 ng·h/mL
- Vd/F (human, plasma, po, 120 mg, Fasted (N = 15), 120 mg MDMA·HCl, geometric mean): 5520 L
- AUC(0-t) (human, plasma, po, 120 mg, Fasted (N = 15), 120 mg MDMA·HCl, geometric mean, read-out: AUC0-72): 313 ng·h/mL
- AUC(0-inf) (human, plasma, po, 120 mg, Fasted (N = 15), 120 mg MDMA·HCl, geometric mean, read-out: AUC0-inf): 330 ng·h/mL
- AUC(0-t) (human, plasma, po, 120 mg, Fasted (N = 15), 120 mg MDMA·HCl, geometric mean, read-out: AUC0-t): 282 ng·h/mL
- half-life (human, plasma, po, 120 mg, Fasted (N = 15), 120 mg MDMA·HCl, geometric mean, read-out: T1/2 (converted)): 756 min
- Vd/F (human, plasma, po, 120 mg, Fed (N = 14), 120 mg MDMA·HCl, geometric mean): 5000 L
- AUC(0-t) (human, plasma, po, 120 mg, Fed (N = 14), 120 mg MDMA·HCl, geometric mean, read-out: AUC0-72): 322 ng·h/mL
- AUC(0-inf) (human, plasma, po, 120 mg, Fed (N = 14), 120 mg MDMA·HCl, geometric mean, read-out: AUC0-inf): 369 ng·h/mL
- AUC(0-t) (human, plasma, po, 120 mg, Fed (N = 14), 120 mg MDMA·HCl, geometric mean, read-out: AUC0-t): 255 ng·h/mL
- half-life (human, plasma, po, 120 mg, Fed (N = 14), 120 mg MDMA·HCl, geometric mean, read-out: T1/2 (converted)): 768 min
- AUC(0-inf) (human, plasma, po, 120 mg, single 120 mg dose of MDMA·HCl, fasting, read-out: AUC0-inf): 374 ng·h/mL
- half-life (human, plasma, po, 120 mg, single 120 mg dose of MDMA·HCl, fasting, read-out: t1/2 (converted)): 768 min
- Tmax (single 120 mg dose of MDMA·HCl, fasting): 6 h
